According to ChEMBL document CHEMBL4251582 (Eur J Med Chem, 2018):
Each block holds one compound with its values, some of them ahead of it.

Legend:
[1] = tested on: MCF7; assay: Cytostatic activity against human MCF7 cells; assay type: functional, cell-based
[2] = tested on: MCF7; assay: Cytotoxicity against human MCF7 cells after 72 hrs by LDH assay; assay type: functional, cell-based; conditions: MCF7, 72 h
[3] = target: T1, Estrogen receptor (Homo sapiens, UniProt P03372); assay: Inhibition of estrogen receptor (unknown origin)
T1 sequence (P03372 whole entry): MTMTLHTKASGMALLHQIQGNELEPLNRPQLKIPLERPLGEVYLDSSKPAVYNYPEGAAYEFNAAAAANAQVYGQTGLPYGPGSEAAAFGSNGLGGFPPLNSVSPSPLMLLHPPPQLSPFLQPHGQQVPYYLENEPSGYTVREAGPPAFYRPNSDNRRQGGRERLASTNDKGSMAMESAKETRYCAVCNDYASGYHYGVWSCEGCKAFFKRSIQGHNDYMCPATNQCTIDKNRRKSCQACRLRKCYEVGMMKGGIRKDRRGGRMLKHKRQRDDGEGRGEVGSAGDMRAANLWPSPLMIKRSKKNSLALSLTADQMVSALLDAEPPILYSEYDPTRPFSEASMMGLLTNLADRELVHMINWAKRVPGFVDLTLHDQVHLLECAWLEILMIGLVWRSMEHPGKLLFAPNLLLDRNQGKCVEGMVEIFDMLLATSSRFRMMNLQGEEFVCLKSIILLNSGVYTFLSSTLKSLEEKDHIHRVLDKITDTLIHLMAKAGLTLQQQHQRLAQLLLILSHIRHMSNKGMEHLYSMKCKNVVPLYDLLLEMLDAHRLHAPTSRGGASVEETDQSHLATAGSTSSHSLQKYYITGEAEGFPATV

[4] = target: T2, Prostaglandin G/H synthase 2 (Ovis aries, UniProt P79208); assay: Inhibition of ovine COX2 using arachidonic acid as substrate assessed as reduction in PGF2alpha production preincubated for 5 mins followed by substrate addition measured after 2 mins by enzyme immunoassay
T2 sequence (P79208 whole entry): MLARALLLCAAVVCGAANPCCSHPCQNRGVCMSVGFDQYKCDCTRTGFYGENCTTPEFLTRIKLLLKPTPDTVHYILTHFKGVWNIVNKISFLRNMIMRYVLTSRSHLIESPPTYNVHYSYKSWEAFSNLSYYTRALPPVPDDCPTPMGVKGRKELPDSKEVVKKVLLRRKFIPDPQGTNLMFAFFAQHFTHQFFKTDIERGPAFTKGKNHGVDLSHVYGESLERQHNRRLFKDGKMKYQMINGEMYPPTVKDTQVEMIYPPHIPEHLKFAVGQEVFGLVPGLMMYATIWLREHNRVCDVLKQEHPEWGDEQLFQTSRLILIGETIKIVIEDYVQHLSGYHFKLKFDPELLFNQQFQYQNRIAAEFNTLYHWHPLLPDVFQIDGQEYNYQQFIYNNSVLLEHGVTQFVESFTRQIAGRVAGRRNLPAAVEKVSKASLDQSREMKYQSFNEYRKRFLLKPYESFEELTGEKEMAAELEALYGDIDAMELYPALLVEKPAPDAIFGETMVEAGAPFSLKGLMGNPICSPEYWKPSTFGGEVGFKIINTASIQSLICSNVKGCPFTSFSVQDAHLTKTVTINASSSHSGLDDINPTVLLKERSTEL

[5] = organism: Ovis aries; assay: Selectivity index, ratio of IC50 for ovine COX1 to IC50 for ovine COX2
[6] = target: T1, Estrogen receptor; assay: Binding affinity to estrogen receptor (unknown origin)
[7] = organism: Homo sapiens; assay: Selectivity index, ratio of IC50 for of ERalpha receptor (unknown origin) to IC50 for ERbeta receptor (unknown origin)
[8] = tested on: MCF7; assay: Antiproliferative activity against human MCF7 cells; assay type: functional, cell-based
[9] = target: T3, Estrogen receptor (Homo sapiens) (UniProt P03372); assay: Potency index, ratio of tamoxifen IC50 to compound IC50 for binding affinity to ERalpha receptor (unknown origin)
T3 sequence (whole entry): T1 sequence (P03372 whole entry)

[10] = organism: Homo sapiens; assay: Ratio of selectivity index for test compound to selectivity index for compound for ERalpha (unknown origin) over ERbeta (unknown origin)

SMILES: CC/C(Cc1ccccc1)=C(\c1ccccc1)c1ccc(OCCN2CCCC2)cc1
IC50 [2]: 12500 nM

SMILES: CC/C(=C(\c1ccccc1)c1cnn(OCCCN(C)C)c1)c1ccccc1
IC50 [1]: 3000 nM

SMILES: CCN(CC)CCOc1ccc(C(=C(C#N)c2ccccc2)c2ccc(OCCN(CC)CC)cc2)cc1
IC50 [3]: > 10000 nM

SMILES: CN1CCN(CCOc2ccc(C(=C(C#N)c3ccccc3)c3ccc(OCCN4CCN(C)CC4)cc3)cc2)CC1
IC50 [3]: > 10000 nM

The next lines start with the values.

IC50 [1]: 2700 nM
SMILES: CC/C(=C(\c1ccccc1)c1ccc(OCCN(C)C)cc1)c1ccccc1 [TAMOXIFEN]

IC50 [4]: 14 nM
Ratio IC50 [5]: > 7140
SMILES: CCCCC(=C(c1ccccc1)c1ccccc1)c1ccc(S(C)(=O)=O)cc1

IC50 [1]: 1000 nM
SMILES: CCc1c(-c2ccccc2)c2cnn(OCCCN(C)C)c2c2ccccc12

IC50 [6]: 20 nM
Ratio IC50 [7]: 12
IC50 [8]: < 250 nM
Ratio IC50 [9]: 80
Ratio IC50 [10]: 900
SMILES: CCC(Cc1ccccc1)=C(c1ccc(O)cc1)c1ccc(OCCN2CCCC2)cc1
